Source: patent publication US9925227B2, “Composition for treating obesity and method of using the same” (POLIFENOLES NATURALES S.L., priority 2006, dated 2018)

Assay: Energy expenditure by indirect calorimetry, dose-response clinical trial
Assay type: in vivo, human
Settings: for Energy Expenditure: obese non-diabetic females with NAFLD; for Total Energy Expenditure, From (start value): baseline; for Total Energy Expenditure, to (end value): end of trial
Source text: Obese subjects diagnosed with NAFLD and with apparently healthy liver (HL) were matched in pairs based on age, body weight and body fat mass and were randomly divided into Experimental NAFLD group (n=36), Placebo NAFLD (n=36), Experimental HL (n=19) and Placebo-HL group (n=19). Subjects were randomly assigned, in equal numbers, to the phytomedicine experimental groups and the Placebo control group, using the Simple Randomization Procedure. Their daily dietary intake was restricted to 1800±100 kcals, of which 50±5% was in the form of carbohydrates, 30±5% from protein, and 20±5% from fat. Subjects were also instructed to consume all the foods and beverages designated by dieticians and provided by the Institute, and to eat no other food or high calories beverages. Patients were directed to take Experimental Sample and/or Placebo three times a day before meals. During the clinical phase, subjects were required to visit a designated hospital three times a week for physiological and biochemical analysis. Institute provided all foods and beverages by designated dieticians and labeled as B, L, and D for breakfast, lunch and dinner, respectively.
Measurements of Fat Oxidation by Indirect Calorimetry
Energy expenditure (EE) and substrate oxidations were measured by indirect calorimetry as described previously (Ranneries et al., 1998). Oxygen was measured with an electrochemical oxygen sensor, and carbon dioxide was measured by an infrared carbon dioxide sensor (Ametec Carbon Dioxide Analyzer). Calculations of EE and substrate oxidation rates were performed as previously described (Astrup et al., 1991). Protein oxidation was assumed to be constant and amounting to 15% of EE. The error of calculating EE by omitting the exact correction from urinary nitrogen was negligible and impossible to estimate during such a short period of time. The reliability was assessed by the coefficient of variation on resting energy expenditure repeated every week.
This effect was clearly dose-dependent phenomenon. […] Based on our dose-response trial, the optimum dose of Experimental Sample was established as 600 mg per day, which was used in further clinical trials.

Fucoxanthin
increase in daily energy expenditure rate (25 mg fucoxanthin alone): 1152 ± 290 kJ/day | Energy Expenditure (Fucoxanthin 10 mg per day, 2 weeks): 5.69 ± 0.21 kJ/min | Energy Expenditure (Fucoxanthin 10 mg per day, 5 weeks): 5.93 ± 0.15 kJ/min | Energy Expenditure (Fucoxanthin 10 mg per day, 10 weeks): 5.69 ± 0.21 kJ/min | Energy Expenditure (Fucoxanthin 10 mg per day, 16 weeks): 5.98 ± 0.18 kJ/min | Energy Expenditure (Fucoxanthin 10 mg per day, Baseline): 5.82 ± 0.18 kJ/min | Total Energy Expenditure, From (start value) (Fucoxanthin 10 mg per day): 8381 kJ/24 h | Total Energy Expenditure, to (end value) (Fucoxanthin 10 mg per day): 8611 kJ/24 h | Change in Total Energy Expenditure, Net (Fucoxanthin 10 mg per day, p < NS vs placebo): Net 230 ± 147 kJ/24 h | Energy Expenditure (Fucoxanthin 15 mg per day, 2 weeks): 5.89 ± 0.14 kJ/min | Energy Expenditure (Fucoxanthin 15 mg per day, 5 weeks): 5.98 ± 0.17 kJ/min | Energy Expenditure (Fucoxanthin 15 mg per day, 10 weeks): 6.11 ± 0.21 kJ/min | Energy Expenditure (Fucoxanthin 15 mg per day, 16 weeks): 6.39 ± 0.17 kJ/min | Energy Expenditure (Fucoxanthin 15 mg per day, Baseline): 5.85 ± 0.27 kJ/min | Total Energy Expenditure, From (start value) (Fucoxanthin 15 mg per day): 8424 kJ/24 h | Total Energy Expenditure, to (end value) (Fucoxanthin 15 mg per day): 9202 kJ/24 h | Change in Total Energy Expenditure, Net (Fucoxanthin 15 mg per day, p < 0.05 vs placebo): Net 778 ± 260 kJ/24 h | Energy Expenditure (Fucoxanthin 25 mg per day, 2 weeks): 6.02 ± 0.23 kJ/min | Energy Expenditure (Fucoxanthin 25 mg per day, 5 weeks): 5.92 ± 0.27 kJ/min | Energy Expenditure (Fucoxanthin 25 mg per day, 10 weeks): 6.29 ± 0.31 kJ/min | Energy Expenditure (Fucoxanthin 25 mg per day, 16 weeks): 6.72 ± 0.22 kJ/min | Energy Expenditure (Fucoxanthin 25 mg per day, Baseline): 5.92 ± 0.16 kJ/min | Total Energy Expenditure, From (start value) (Fucoxanthin 25 mg per day): 8525 kJ/24 h | Total Energy Expenditure, to (end value) (Fucoxanthin 25 mg per day): 9677 kJ/24 h | Change in Total Energy Expenditure, Net (Fucoxanthin 25 mg per day, p < 0.05 vs placebo): Net 1152 ± 290 kJ/24 h | Energy Expenditure (Fucoxanthin 50 mg per day, 2 weeks): 5.91 ± 0.31 kJ/min | Energy Expenditure (Fucoxanthin 50 mg per day, 5 weeks): 6.32 ± 0.22 kJ/min | Energy Expenditure (Fucoxanthin 50 mg per day, 10 weeks): 6.92 ± 0.31 kJ/min | Energy Expenditure (Fucoxanthin 50 mg per day, 16 weeks): 7.37 ± 0.35 kJ/min | Energy Expenditure (Fucoxanthin 50 mg per day, Baseline): 6.04 ± 0.24 kJ/min | Total Energy Expenditure, to (end value) (Fucoxanthin 50 mg per day): 10613, kJ/24 h | Change in Total Energy Expenditure, Net (Fucoxanthin 50 mg per day, p < 0.001 vs placebo): Net 1915 ± 246 kJ/24 h
